Assay [1] has as its target T1, rat GPR14 (U-II receptor) (Rattus norvegicus, UniProt P49684).
T1 construct: expressed in transfected cells
T1 sequence (P49684 1-386): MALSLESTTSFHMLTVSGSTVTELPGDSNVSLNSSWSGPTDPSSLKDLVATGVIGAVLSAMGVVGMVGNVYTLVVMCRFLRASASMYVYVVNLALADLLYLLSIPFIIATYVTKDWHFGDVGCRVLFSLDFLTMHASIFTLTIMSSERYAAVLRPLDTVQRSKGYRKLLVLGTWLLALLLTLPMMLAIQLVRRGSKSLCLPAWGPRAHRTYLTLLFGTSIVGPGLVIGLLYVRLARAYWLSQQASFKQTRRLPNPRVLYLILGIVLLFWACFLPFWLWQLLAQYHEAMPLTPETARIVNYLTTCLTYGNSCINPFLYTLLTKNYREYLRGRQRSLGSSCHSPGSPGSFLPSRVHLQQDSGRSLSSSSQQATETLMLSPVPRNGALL
The assay is described as follows: Rat UII Calcium Mobilization FLIPR Assay. The following applies: average value for the compound tested; read-out: Rat UII FLIPR Average IC50. In kind it is cell-based. A digest of the protocol: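 CHO cells stably expressing rat U-II receptor, seeded 24 h before assay, were loaded with FLIPR calcium dye in HBSS/20 mM HEPES/0.1% BSA/2.5 mM probenecid, pH 7.4, for 1 h at 37° C. Calcium mobilization then read by FLIPR at 23° C.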
In general terms: A change in cytosolic calcium serves as a functional read-out for many receptors and channels.

The target of assay [2] is T2, Human UII receptor, 6D9 human rhabdomyosarcoma cells (Homo sapiens, UniProt Q9UKP6).
T2 construct: 6D9: isolated by dilution subcloning of RMS13 cells, ATCC® Number: CRL-2061; host or cells: 6D9 human rhabdomyosarcoma cells (subclone of RMS13)
T2 sequence (Q9UKP6 1-389): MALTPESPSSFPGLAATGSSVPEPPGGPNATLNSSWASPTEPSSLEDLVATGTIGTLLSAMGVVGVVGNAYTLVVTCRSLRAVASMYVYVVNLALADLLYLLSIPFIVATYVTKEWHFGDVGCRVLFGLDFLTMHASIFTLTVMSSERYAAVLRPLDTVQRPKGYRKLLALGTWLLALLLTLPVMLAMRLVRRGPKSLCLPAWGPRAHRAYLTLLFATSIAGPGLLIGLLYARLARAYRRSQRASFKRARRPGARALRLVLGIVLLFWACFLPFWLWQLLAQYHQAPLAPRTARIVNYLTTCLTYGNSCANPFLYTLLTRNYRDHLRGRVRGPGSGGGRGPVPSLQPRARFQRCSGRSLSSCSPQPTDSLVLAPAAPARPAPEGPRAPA
The experiment in a line: Human UII Calcium Mobilization Assay. In kind it is cell-based. The following applies: average value, FLIPR TETRA, read-out: Human UII Ca^+ Mobilization Average IC50. Here is the method: 6D9 human rhabdomyosarcoma cells were seeded into tissue culture treated 384-well black-walled clear bottom plates (3712, Corning Incorporated, Corning, N.Y.) at 8,000 cells/well in 25 μL of culture medium, and maintained in an incubator (5% CO2 at 37° C.) for 22 hrs prior to the calcium mobilization assay. 25 μL of dye solution was added to the wells such that the final liquid volume before agonist/antagonist treatment was 50 μL for all assays. The cell plates were incubated at 37° C. for 45 minutes and the fluorescence intensity was measured on a Fluorometric Imaging Plate Reader (FLIPR^TETRA, Molecular Devices, Sunnyvale, Calif.).
Antagonist and agonist U-II were added at room temperature on the FLIPR^TETRA, and the fluorescence intensity before and after addition was measured over a period of 4 minutes. The dye incubation time and temperature as well as instrument setting was adjusted so the fluorescence intensity could be compared between plates on the same day. EC50 and IC50 were analyzed using GraphPad Prism 4 software (GraphPad Software Inc., San Diego, Calif.).
Materials and reagent Preparation: Human Rhabdomyosarcoma cells (6D9: isolated by dilution subcloning of RMS13 cells, ATCC® Number: CRL-2061, American Type Culture Collection ATCC, Manassas, Va.) was maintained in RPMI-1640 medium (30-2001, ATCC, Manassas, Va.) supplemented with 10% (v/v) Fetal Bovine Serum (SH30071.03, Hyclone, Logan, Utah).
Dye preparation: BD™ Calcium Assay Kit (80500-301, BD Biosciences, Rockville, Md.) was prepared according to the manufacture's instruction in 1× Hanks' balanced salt solution (HBSS, 21-023-CV, Mediatech, Inc. Herndon, Va.) containing 20 mM HEPES buffer (25-060-CI, Mediatech, Inc. Herndon, Va.). Final dye loading conditions included 1.25 mM probenecid (P36400, Invitrogen, Carlsbad, Calif.) and 0.01% FBS.
Urantide (PUT-3639-PI, Peptide International, Louisville, Ky.) was prepared in water at 5 mM. For assays, U-II agonist, U-II antagonist and urantide were diluted with HBSS/HEPES containing 0.01% FBS.
Test compounds were dissolved in DMSO at 10 mM concentration. The serial dilutions were carried out in HBSS/HEPES. The highest final DMSO concentration was at 0.1%.

For assay [3], the target named is T3, endogenous human UII receptor (Homo sapiens, UniProt Q9UKP6).
T3 sequence (Q9UKP6 1-389): T2 sequence (Q9UKP6 1-389)
The assay is described as follows: Human Radioligand Binding Assay ((^125I)-U-II binding to human skeletal muscle myoblasts).

A word on the IC50: it is the concentration needed to halve the response being measured. The term Ki denotes the equilibrium dissociation constant of an inhibitor or competing ligand from its target. Read a low Ki as tighter binding.

For `COC(=O)c1csc(S(=O)(=O)NCCCC(c2ccc(OC)c(OC)c2)N2C(=O)c3cccc(N4CCN([C@H](C)c5ccccc5)CC4)c3C2=O)c1OC` (stereo partly drawn) [Cpd 88, 5-(4-(3,4-dimethoxy-phenyl)-4-{1,3-dioxo-4-[4-(1R)-(1-phenyl-ethyl)-piperazin-1-yl]-1,3-dihydro-isoindol-2-yl}-butylsulfamoyl)-4-methoxy-thiophene-3-carboxylic acid methyl ester], the IC50 in assay [1] was 320 nM; in assay [2], over 3000 nM. The compound further had a Ki in assay [3] of 350 nM.

In the case of `COc1ccc(C(CCCNS(=O)(=O)c2cc(C)oc2C(F)(F)F)N2C(=O)c3cccc(N4CCN([C@H](C)c5ccccc5)CC4)c3C2=O)cc1OC` (stereo partly drawn) [Cpd 89, 5-methyl-2-trifluoromethyl-furan-3-sulfonic acid (4-(3,4-dimethoxy-phenyl)-4-{1,3-dioxo-4-[4-(1R)-(1-phenyl-ethyl)-piperazin-1-yl]-1,3-dihydro-isoindol-2-yl}-butyl)-amide], the IC50 in assay [1] is 540 nM; in assay [2] it was over 10000 nM. In assay [3], this compound had a Ki of 890 nM.

For `COC(=O)c1ccc(S(=O)(=O)NCCCC(c2ccc(OC)c(OC)c2)N2C(=O)c3cccc(N4CCN([C@H](C)c5ccccc5)CC4)c3C2=O)o1` (stereo partly drawn) [Cpd 90, 5-(4-(3,4-dimethoxy-phenyl)-4-{1,3-dioxo-4-[4-(1R)-(1-phenyl-ethyl)-piperazin-1-yl]-1,3-dihydro-isoindol-2-yl}-butylsulfamoyl)-furan-2-carboxylic acid methyl ester], the IC50 in assay [1] turned out to be 130 nM; in assay [2], 560 nM. The compound also displayed an inhibitory constant (Ki) in assay [3] of 320 nM.

As to `COc1ccc(C(CCCNS(=O)(=O)c2c(C)nn(C)c2C)N2C(=O)c3cccc(N4CCN([C@H](C)c5ccccc5)CC4)c3C2=O)cc1OC` (stereo partly drawn) [Cpd 91, 1,3,5-trimethyl-1H-pyrazole-4-sulfonic acid (4-(3,4-dimethoxy-phenyl)-4-{1,3-dioxo-4-[4-(1R)-(1-phenyl-ethyl)-piperazin-1-yl]-1,3-dihydro-isoindol-2-yl}-butyl)-amide], the IC50 in assay [1] was found to be 15 nM; in assay [2], 310 nM. The same compound came in with a Ki in assay [3] of 150 nM.

Consider `COc1ccc(C(CCCNS(=O)(=O)c2c(Cl)nc3sccn23)N2C(=O)c3cccc(N4CCN([C@H](C)c5ccccc5)CC4)c3C2=O)cc1OC` (stereo partly drawn) [Cpd 93, 6-chloro-imidazo[2,1-b]thiazole-5-sulfonic acid (4-(3,4-dimethoxy-phenyl)-4-{1,3-dioxo-4-[4-(1R)-(1-phenyl-ethyl)-piperazin-1-yl]-1,3-dihydro-isoindol-2-yl}-butyl)-amide], for which the IC50 is 180 nM in assay [1] and over 3000 nM in assay [2]. The compound also showed a Ki in assay [3] of 460 nM.

For the compound `COC(=O)c1sccc1S(=O)(=O)NCCCC(c1ccc(OC)c(OC)c1)N1C(=O)c2cccc(N3CCN([C@H](C)c4ccccc4)CC3)c2C1=O` (stereo partly drawn) [Cpd 94, 3-(4-(3,4-dimethoxy-phenyl)-4-{1,3-dioxo-4-[4-(1R)-(1-phenyl-ethyl)-piperazin-1-yl]-1,3-dihydro-isoindol-2-yl}-butylsulfamoyl)-thiophene-2-carboxylic acid methyl ester], the IC50 is 65 nM in assay [1] and 430 nM in assay [2]. Besides, in assay [3], the Ki was determined as 42 nM.

As for `COc1ccc([C@@H](CCCNc2ccccn2)N2C(=O)c3cccc(N4CCN([C@H](C)c5ccccc5)CC4)c3C2=O)cc1OC` [Cpd 142, (R)-2-[1-(3,4-dimethoxy-phenyl)-4-(pyridin-2-ylamino)-butyl]-4-[4-(1R)-(1-phenyl-ethyl)-piperazin-1-yl]-isoindole-1,3-dione], the IC50 in assay [1] came out at 97 nM; in assay [2], 1100 nM.

With `COc1ccc([C@@H](CCCNC(=O)CN(C)C)N2C(=O)c3cccc(N4CCN([C@H](C)c5ccccc5)CC4)c3C2=O)cc1OC` [Cpd 143, (R)-N-(4-(3,4-dimethoxy-phenyl)-4-{1,3-dioxo-4-[4-(1R)-(1-phenyl-ethyl)-piperazin-1-yl]-1,3-dihydro-isoindol-2-yl}-butyl)-2-dimethylamino-acetamide], the IC50 amounted to 28 nM in assay [1] and 690 nM in assay [2].

Take `COc1ccc([C@@H](CCCNS(=O)(=O)c2cccs2)N2C(=O)c3cccc(N4CCN(CC(F)(F)F)CC4)c3C2=O)cc1OC` [Cpd 195, (R)-thiophene-2-sulfonic acid (4-(3,4-dimethoxy-phenyl)-4-{1,3-dioxo-4-[4-(2,2,2-trifluoro-ethyl)-piperazin-1-yl]-1,3-dihydro-isoindol-2-yl}-butyl)-amide]: the IC50 in assay [1] was 2100 nM; in assay [2], over 10000 nM.

Regarding `COc1ccc([C@@H](CCCNC(=O)C(C)C)N2C(=O)c3cccc(OC4CCN(C)C4)c3C2=O)cc1OC` (stereo partly drawn) [Cpd 200, (R)-N-{4-(3,4-dimethoxy-phenyl)-4-[4-(1-methyl-pyrrolidin-3-yloxy)-1,3-dioxo-1,3-dihydro-isoindol-2-yl]-butyl}-isobutyramide], the IC50 is 4000 nM in assay [1] and over 10000 nM in assay [2].

With `CCN1CCN(c2cccc3c2C(=O)N([C@H](CCCNS(=O)(=O)c2c(C)nn(C)c2C)c2ccc(OC)c(OC)c2)C3=O)CC1` [Cpd 204, (R)-1,3,5-trimethyl-1H-pyrazole-4-sulfonic acid {4-(3,4-dimethoxy-phenyl)-4-[4-(4-ethyl-piperazin-1-yl)-1,3-dioxo-1,3-dihydro-isoindol-2-yl]-butyl}-amide], the results for the IC50 in assay [1] and in assay [2] were 7.5 nM and 200 nM, respectively.

For `COc1ccc([C@@H](CCCNC(=O)C(C)C)N2C(=O)c3cccc(OC4CCN(C)CC4)c3C2=O)cc1OC` [Cpd 205, (R)-N-{4-(3,4-dimethoxy-phenyl)-4-[4-(1-methyl-piperidin-4-yloxy)-1,3-dioxo-1,3-dihydro-isoindol-2-yl]-butyl}-isobutyramide], the IC50 in assay [1] was 3700 nM; in assay [2] it was over 3000 nM.

On to `CCN1CCN(c2cccc3c2C(=O)N([C@H](CCCOS(=O)(=O)c2cccs2)c2ccc(OC)c(OC)c2)C3=O)CC1` [Cpd 208, (R)-thiophene-2-sulfonic acid 4-(3,4-dimethoxy-phenyl)-4-[4-(4-ethyl-piperazin-1-yl)-1,3-dioxo-1,3-dihydro-isoindol-2-yl]-butyl ester], for which the IC50 in assay [1] worked out at 320 nM; in assay [2], 4500 nM.

For `CCN1CCN(c2cccc3c2C(=O)N([C@H](CCCOS(=O)(=O)N(C)C)c2ccc(OC)c(OC)c2)C3=O)CC1` [Cpd 209, (R)-dimethyl-sulfamic acid 4-(3,4-dimethoxy-phenyl)-4-[4-(4-ethyl-piperazin-1-yl)-1,3-dioxo-1,3-dihydro-isoindol-2-yl]-butyl ester], the IC50 in assay [2] amounted to 3800 nM. This compound also had a Ki in assay [3] of 290 nM.

The values above are taken from patent US8193191B2, “Urotensin II receptor antagonists” (Janssen Pharmaceutica N.V., priority 2006, dated 2012).
